Here are results for one molecule from patent US20200378993A1, “MEDICAL USES OF APOLIPOPROTEIN A AND ACTIVATORS THEREOF” (FUNDACIÓN IMDEA ALIMENTACIÓN, priority 2017, published 2020).

Each structure is given as a SMILES string.

What all share (type): cell-based, human
The subject of one experiment is DLD1_ABCA1 cells. Kind of experiment: Cell viability and proliferation assay (XCELLigence). As to conditions: RVX-208 30 μm 72 hours then 15 μM; DLD1 cells overexpressing ABCA1. The method, then:
(§1) FIG. 6. A) Proliferation curve in a viability assay carried out by means of XCELLigence technology. The results for the stable cell line overexpressing ABCA1 in the absence and presence of ApoA1 are shown. The cells were treated for 72 hours before the experiment with 40 μg/ml of ApoA1 and with a concentration of 20 μg/ml during acquisition. B) Migration and invasion assays. The method followed was the same as the one described in FIG. 1. (**p-value=0.003; ****p-value<0.0001). C) ABCA1 messenger RNA level (left panel) and ABCA1 protein level (right panel) in the presence and absence of treatment with ApoA1. Results are shown both for the control cells and for those cells overexpressing the transporter.
Cell viability and proliferation assays were carried out by means of XCELLigence technology (ACEA Biosciences, Inc.) following the manufacturer's indications. Migration and invasion assays were carried out in Corning® BioCoat™ Control plates (#354578) and Corning® BioCoat™ Matrigel plates (#354480), respectively, following the manufacturer's indications. […]
(§2) The inventors were able to confirm said results based on the treatment of DLD1 cells expressing ABCA1 with RVX-208 under the conditions already described in detail in Example 3. […] The levels of caveolin-1, a protein whose increased levels have been associated with increases in cell migration and invasion, were also analyzed in this experiment.

For experiment [1], the system named is ABCA1 cholesterol transporter. The experiment is described as follows: ABCA1 messenger RNA and protein level after treatment. As to conditions: treatment with Rvx-208 (30 μM); Western blot. The method, then:
as §1
(§3) FIG. 7. A) Proliferation curve in a viability assay carried out by means of XCELLigence technology. Growth of DLD1 cells treated with DMSO as the drug carrier and with Rvx-208 (30 μM). The significant differences existing in the slope of the graph, and therefore in the growth dynamics of the treated cells are shown in the right panel (****p-value<0.0001). B) Migration and invasion assays. The method followed was the same as the one described in FIG. 2 (*p-value=0.0407; ****p-value<0.0001). C) Expression levels of proteins E-cadherin and Vimentin in the presence and absence of Rvx-208. Analysis performed by means of quantitative PCR. The relative expression levels normalized with respect to the untreated control are shown. D) ABCA1, ApoA1, caveolin-1, and α-tubulin immunodetection by means of Western blot. α-tubulin acts as load control. The results of the cells treated with Rvx-208 (30 μM) or with the DMSO carrier are shown. E) Cholesterol flux in cells treated with Rvx-208.
Cell viability and proliferation assays were carried out by means of XCELLigence technology (ACEA Biosciences, Inc.) following the manufacturer's indications. Migration and invasion assays were carried out in Corning® BioCoat™ Control plates (#354578) and Corning® BioCoat™ Matrigel plates (#354480), respectively, following the manufacturer's indications. For the rescue assays, the cells were treated for 72 hours with 30 μM apabetalone (RVX-208; Biovision). Antibodies: ABCA1 (Ab18180, Abcam. 1:500); caveolin-1 (Ab2910, Abcam. 1:1000); α-tubulin (T9026, Sigma 1:1000). The DLD1 cells correspond to a human colorectal cancer-derived adherent epithelial cell line (ATCC® CCL-221™). […]
as §2
Background: A western blot detects proteins with antibodies after separation by electrophoresis.

Another experiment relates to cholesterol flux. Kind of experiment: Cholesterol flux in treated cells. The settings on record: treatment with Rvx-208. The method, then: as §3, with “with Rvx-208. The inventors were able to confirm said results based on the treatment of DLD1 cells expressing ABCA1 with RVX-208 under the conditions already described in detail in Example 3. […] The levels of caveolin-1, a protein whose increased levels have been associated with increases in cell migration and invasion, were also analyzed in this experiment.” for “with Rvx-208.”

Experiment [2] deals with D1D1 cell lines expressing increased ApoA1 levels (D_ApoA1). Kind of experiment: Cell viability and proliferation (xCELLigence) with ShApoA1/scramble transfection. The settings on record: 30 μM RVX-208, ApoA1 expression not inhibited (Scr+Rvx-208); D_ApoA1 cells. The method, then:
FIG. 9: A) Proliferation curve in a viability assay carried out by means of XCELLigence technology. Growth of DLD1 cells treated with DMSO as the drug carrier and with Rvx-208 (30 μM). Control cells (scramble, SCR) are shown in black. Cells transfected with anti-ApoA1 short hairpin are shown in gray. The significant differences existing in the values of the slope of the graphs on the left-hand side, and therefore in the growth dynamics of the treated cells, are shown in the right panels (*p-value=0.0471; **p-value=0.0067; ****p-value<0.0001). B) Invasion assays in cells with silenced ApoA1 expression. For the purpose of confirming that the effects of RVX-208 in cell phenotype recovery were due to the increase in ApoA-1 expression, the inventors inhibited the expression of said protein by means of transfection of a complementary small RNA, ShApoA1 (FIG. 9). Twenty-four hours after transfection with ShApoA1 expression vector, the inventors started treatment with 30 μM of RVX-208. Cell viability and proliferation in DLD1 cells (D_NoORF) and D1D1 cell lines expressing increased ApoA1 levels (D_ApoA1 ) were analyzed with the xCELLigence system.

`COc1cc(OC)c2c(=O)[nH]c(-c3cc(C)c(OCCO)c(C)c3)nc2c1` [RVX-208, 2-(4-(2-hydroxyethoxy)-3,5-dimethylphenyl)-5,7-dimethoxyquinazolin-4(3H)-one]: in the experiment on DLD1_ABCA1 cells, the proliferative capacity result is recorded as “significant decrease in proliferative capacity”. Also, in experiment [1], the ABCA1 expression levels entry was “reduces ABCA1 expression levels”. The cholesterol flux result with cholesterol flux (cells overexpressing ABCA1) and in the experiment with cholesterol flux (control cells) was “decreases significantly” in each case. Also, the proliferation indices result in experiment [2] is listed as “significantly lower”.
